Measured values reported in patent publication US20060003399A1, “High throughput actin polymerization assay” (Cytokinetics, Inc., priority 2004, published 2006).

System: PMA-treated THP-1 cells
Assay: Macrophage podosome formation assay
Type: cell-based, human
Settings: FIG. 13
Experimental: Positive hits from the in vitro screening assays are tested for effects on macrophage podosome formation. Macrophages express Arp2/3 and WASP, the latter of which is required for podosome formation. A typical cell-based secondary assay of this type includes the human monocytic cell ine THP-1, which undergoes macrophage differentiation and podosome formation in response to exposure to the phorbol ester, phorbol-12-myristate-13-acetate (PMA) (50 nM). A nuclear stain and an actin stain are used to detect and quantify the number of podosomes/cell in the absence or presence of positive hits from the in vitro screening assays. An example of the use of this assay is provided in Example 14 and is illustrated in FIG. 13.
In this assay, positive hits from the in vitro screening assays are tested for effects on macrophage podosome formation. […] A nuclear stain and an actin stain are used to quantify the number of podosomes/cell in a culture of differentiated THP-1 cells in the absence or presence of positive hits from the in vitro screening assays. […]
Podosomes in the THP-1 cells were visualized using a nuclear stain and an actin stain as follows. […] The fraction of THP-1 cells positive for podosomes was quantified using Image Express software (Molecular Devices, Inc.). […]

## COC(=O)Nc1nc2ccc(C(=O)c3cccs3)cc2[nH]1 [nocodazole]
  podosome formation (fraction of THP-1 cells positive for podosomes), in words: prevented podosome formation in PMA-treated THP-1 cells in a dose-dependent manner
